Assay results published in ChEMBL document CHEMBL1949560, “Plasmodium berghei proteome changes in response to SSJ-183 treatment” (2011).
The source made the active and inactive calls. The rule behind the calls is not given here.

Legend:
[1] = tested on: Mus musculus; assay: Up regulation of unnamed protein product (gi74005074) in ICR mouse infected with Plasmodium berghei NK-65 at 50 mg/kg, po administered 4 days post-infection measured after 18 hrs in host blood by 2D-gel electrophoresis; format: functional, organism-based; design: dose 50 mg/kg
[2] = tested on: Mus musculus; assay: Up regulation of unnamed protein product (gi74220592) in ICR mouse infected with Plasmodium berghei NK-65 at 50 mg/kg, po administered 4 days post-infection measured after 18 hrs in host blood by 2D-gel electrophoresis; format: functional, organism-based; design: dose 50 mg/kg
[3] = tested on: Plasmodium berghei; assay: Down regulation of […] precursor in Plasmodium berghei NK-65 infected in ICR mouse at 50 mg/kg, po administered 4 days post-infection measured after 18 hrs in the host blood by 2D-gel electrophoresis; format: functional, organism-based; design: dose 50 mg/kg
[4] = tested on: Plasmodium berghei; assay: Down regulation of hypothetical protein (gi68067763) in Plasmodium berghei NK-65 infected in ICR mouse at 50 mg/kg, po administered 4 days post-infection measured after 18 hrs in the host blood by 2D-gel electrophoresis; format: functional, organism-based; design: dose 50 mg/kg
[5] = tested on: Plasmodium berghei; assay: Down regulation of hypothetical protein (gi68064486) in Plasmodium berghei NK-65 infected in ICR mouse at 50 mg/kg, po administered 4 days post-infection measured after 18 hrs in the host blood by 2D-gel electrophoresis; format: functional, organism-based; design: dose 50 mg/kg
[6] = tested on: Plasmodium berghei; assay: Down regulation of heat shock protein (gi68071723) in Plasmodium berghei NK-65 infected in ICR mouse at 50 mg/kg, po administered 4 days post-infection measured after 18 hrs in the host blood by 2D-gel electrophoresis; format: functional, organism-based; design: dose 50 mg/kg
[7] = tested on: Mus musculus; assay: Down regulation of beta-actin in ICR mouse infected with Plasmodium berghei NK-65 at 50 mg/kg, po administered 4 days post-infection measured after 18 hrs in host blood by 2D-gel electrophoresis; format: functional, organism-based; design: dose 50 mg/kg
[8] = tested on: Plasmodium berghei; assay: Antimalarial activity against Plasmodium berghei NK-65 infected in ICR mouse assessed as parasitemia at 50 mg/kg, po administered 4 days post-infection measured after 18 hrs (reference value: 30 to 40%); format: functional
[9] = tested on: Plasmodium berghei; assay: Down regulation of berghepain-2 in Plasmodium berghei NK-65 infected in ICR mouse at 50 mg/kg, po administered 4 days post-infection measured after 18 hrs in the host blood by 2D-gel electrophoresis; format: functional, organism-based; design: dose 50 mg/kg

## CCN(CC)c1ccc2nc3c4ccccc4/c(=N/c4ccncc4)cc-3oc2c1.Cl
[1]
  Activity: Active
[2]
  Activity: Active
[3]
  Activity: Active
[4]
  Activity: Active
[5]
  Activity: Active
[6]
  Activity: Active
[7]
  Activity: Active
[8]
  Activity: 20%
[9]
  Activity: Active
